Laboratory results taken from patent US11440947B2, “Peptides and combination of peptides for use in immunotherapy against various tumors” (Immatics Biotechnologies GmbH, priority 2015, dated 2022).

Columns and labels:
[1] = molecular target: HLA-A*02:01 (Homo sapiens, UniProt P04439, D140Y/D185E/D98H/E176V/E277Q/G131W/G231S/I119V/I121R/I166T/I218V/L300P/L318F/N151K/N90K/P208A/P217A/Q86G/Q94H/R138H/R169H/T345S); assay: MHC binding assay: UV-ligand exchange, ELISA on beta2m of stabilized MHC complexes (peptide exchange yield); conditions: binding to HLA-A*02:01, UV-ligand exchange, β2m ELISA
Source text: Candidate peptides for T cell based therapies according to the present invention were further tested for their MHC binding capacity (affinity). The individual peptide-MHC complexes were produced by UV-ligand exchange, where a UV-sensitive peptide is cleaved upon UV-irradiation, and exchanged with the peptide of interest as analyzed. Only peptide candidates that can effectively bind and stabilize the peptide-receptive MHC molecules prevent dissociation of the MHC complexes. To determine the yield of the exchange reaction, an ELISA was performed based on the detection of the light chain (β2m) of stabilized MHC complexes. The assay was performed as generally described in Rodenko et al. (Rodenko et al., 2006).
96 well MAXISorp plates (NUNC) were coated over night with 2 ug/ml streptavidin in PBS at room temperature, washed 4× and blocked for 1 h at 37° C. in 2% BSA containing blocking buffer. Refolded HLA-A*02:01/MLA-001 monomers served as standards, covering the range of 15-500 ng/ml. Peptide-MHC monomers of the UV-exchange reaction were diluted 100 fold in blocking buffer. Samples were incubated for 1 h at 37° C., washed four times, incubated with 2 ug/ml HRP conjugated anti-β2m for 1 h at 37° C., washed again and detected with TMB solution that is stopped with […]. Absorption was measured at 450 nm. Candidate peptides that show a high exchange yield (preferably higher than 50%, most preferred higher than 75%) are generally preferred for a generation and production of antibodies or fragments thereof, and/or T cell receptors or fragments thereof, as they show sufficient avidity to the MHC molecules and prevent dissociation of the MHC complexes.

[2] = tested on: CD8+ T cells; assay: In vitro immunogenicity: in vitro T-cell priming with aAPCs loaded with peptide/MHC complexes and anti-CD28, pMHC multimer readout; type: cell-based, human; conditions: for Wells positive [%]: HLA-A*02 restricted peptides, percentage of positive wells among evaluable; for donors: percentage of positive donors
Source text: In order to obtain information regarding the immunogenicity of the TUMAPs of the present invention, the inventors performed investigations using an in vitro T-cell priming assay based on repeated stimulations of CD8+ T cells with artificial antigen presenting cells (aAPCs) loaded with peptide/MHC complexes and anti-CD28 antibody.
In order to perform in vitro stimulations by artificial antigen presenting cells loaded with peptide-MHC complex (pMHC) and anti-CD28 antibody, the inventors first isolated CD8+ T cells from fresh HLA-A*02 leukapheresis products via positive selection using CD8 microbeads (Miltenyi Biotec, Bergisch-Gladbach, Germany) of healthy donors obtained from the University clinics Mannheim, Germany, after informed consent. PBMCs and isolated CD8+ lymphocytes were incubated in T-cell medium (TCM) until use consisting of RPMI-Glutamax (Invitrogen, Karlsruhe, Germany) supplemented with 10% heat inactivated human AB serum (PAN-Biotech, Aidenbach, Germany), 100 U/ml Penicillin/100 μg/ml Streptomycin (Cambrex, Cologne, Germany), 1 mM sodium pyruvate (CC Pro, Oberdorla, Germany), 20 μg/ml Gentamycin (Cambrex). 2.5 ng/ml IL-7 (PromoCell, Heidelberg, Germany) and 10 U/ml IL-2 (Novartis Pharma, Nürnberg, Germany) were also added to the TCM at this step. Generation of pMHC/anti-CD28 coated beads, T-cell stimulations and readout was performed in a highly defined in vitro system using four different pMHC molecules per stimulation condition and 8 different pMHC molecules per readout condition.
The purified co-stimulatory mouse IgG2a anti human CD28 Ab 9.3 (Jung et al., 1987) was chemically biotinylated using Sulfo-N-hydroxysuccinimidobiotin as recommended by the manufacturer (Perbio, Bonn, Germany). Beads used were 5.6 μm diameter streptavidin coated polystyrene particles (Bangs Laboratories, Illinois, USA).
pMHC used for positive and negative control stimulations were A*0201/MLA-001 (peptide […] (SEQ ID NO. 289) from modified Melan-A/MART-1) and A*0201/DDX5-001 ([…] from DDX5, SEQ ID NO. 290), respectively.
800.000 beads/200 μl were coated in 96-well plates in the presence of 4×12.5 ng different biotin-pMHC, washed and 600 ng biotin anti-CD28 were added subsequently in a volume of 200 μl. Stimulations were initiated in 96-well plates by co-incubating […] CD8+ T cells with 2×10^5 washed coated beads in 200 μl TCM supplemented with 5 ng/ml IL-12 (PromoCell) for 3 days at 37° C. Half of the medium was then exchanged by fresh TCM supplemented with 80 U/ml IL-2 and incubating was continued for 4 days at 37° C. This stimulation cycle was performed for a total of three times. For the pMHC multimer readout using 8 different pMHC molecules per condition, a two-dimensional combinatorial coding approach was used as previously described (Andersen et al., 2012) with minor modifications encompassing coupling to 5 different fluorochromes. Finally, multimeric analyses were performed by staining the cells with Live/dead near IR dye (Invitrogen, Karlsruhe, Germany), CD8-FITC antibody clone SK1 (BD, Heidelberg, Germany) and fluorescent pMHC multimers. For analysis, a BD LSRII SORP cytometer equipped with appropriate lasers and filters was used. Peptide specific cells were calculated as percentage of total CD8+ cells. Evaluation of multimeric analysis was done using the FlowJo software (Tree Star, Oreg., USA). In vitro priming of specific multimer+CD8+ lymphocytes was detected by comparing to negative control stimulations.
Exemplary flow cytometry results after TUMAP-specific multimer staining for 15 peptides of the invention are shown in FIGS. 3 and 6 together with corresponding negative controls.

[3] = CD8+ T cells of healthy HLA-A*02 donors, three stimulation cycles, multimer staining

Substance | Wells positive [%] [2] | also measured
1 (KLQEKIQEL; listed as Homo sapiens) [compound 1] |  | Peptide exchange (MHC class I binding score, peptide exchange yield) [1]: ++++ (>75% = ++++)
4 (VLFGELPAL; listed as Homo sapiens) [compound 4] | + (<20% = +) | 
6 (FLNAIETAL; listed as Homo sapiens) [compound 6] |  | Peptide exchange (MHC class I binding score, peptide exchange yield) [1]: ++++ (>75% = ++++)
9 (SLITGQDLLSV; listed as Homo sapiens) [compound 9] | + (<20% = +) | 
14 (YTFSGDVQL; listed as Homo sapiens) [compound 14] | + (<20% = +) | 
17 (GLLPSAESIKL; listed as Homo sapiens) [compound 17] | + (<20% = +) | Peptide exchange (MHC class I binding score, peptide exchange yield) [1]: ++++ (>75% = ++++)
27 (GLLGKVTSV; listed as Homo sapiens) [compound 27] | + (<20% = +) | 
29 (KMISAIPTL; listed as Homo sapiens) [compound 29] | + (<20% = +) | 
34 (TLNTLDINL; listed as Homo sapiens) [compound 34] | ++++ (>=70% = ++++) | 
35 (VIIKGLEEI; listed as Homo sapiens) [compound 35] | + (<20% = +) | 
39 (YLEDGFAYV; listed as Homo sapiens) [compound 39] | ++++ (>=70% = ++++) | 
50 (ILLSVLHQL; listed as Homo sapiens) [compound 50] | + (<20% = +) | 
66 (AMFPDTIPRV; listed as Homo sapiens) [compound 66] | + (<20% = +) | 
77 (ALYGNVQQV; listed as Homo sapiens) [compound 77] | + (<20% = +) | 
84 (FLLEREQLL; listed as Homo sapiens) [compound 84] |  | Peptide exchange (MHC class I binding score, peptide exchange yield) [1]: ++++ (>75% = ++++)
89 (SLAETIFIV; listed as Homo sapiens) [compound 89] | + (<20% = +) | 
92 (RLFEEVLGV; listed as Homo sapiens) [compound 92] |  | Peptide exchange (MHC class I binding score, peptide exchange yield) [1]: ++++ (>75% = ++++)
97 (KLFEKSTGL; listed as Homo sapiens) [compound 97] | + (<20% = +) | 
101 (SLLEVNEASSV; listed as Homo sapiens) [compound 101] | + (<20% = +) | 
102 (GLYPVTLVGV; listed as Homo sapiens) [compound 102] | + (<20% = +) | 

Substance | Wells positive [%] [2] | also measured
121 (ALYVQAPTV; listed as Homo sapiens) [compound 121] | + (<20% = +) | 
157 (ILQDGQFLV; listed as Homo sapiens) [compound 157] | + (<20% = +) | 
161 (NLLDENVCL; listed as Homo sapiens) [compound 161] |  | Peptide exchange (MHC class I binding score, peptide exchange yield) [1]: ++++ (>75% = ++++)
178 (SLVSWQLLL; listed as Homo sapiens) [compound 178] |  | Peptide exchange (MHC class I binding score, peptide exchange yield) [1]: ++++ (>75% = ++++)
206 (GLDAFRIFL; listed as Homo sapiens) [compound 206] |  | Peptide exchange (MHC class I binding score, peptide exchange yield) [1]: ++++ (>75% = ++++)
233 (SLFESLEYL; listed as Homo sapiens) [compound 233] | + (<20% = +) | 
234 (VLLNEILEQV; listed as Homo sapiens) [compound 234] |  | Peptide exchange (MHC class I binding score, peptide exchange yield) [1]: ++++ (>75% = ++++)
236 (KMSELQTYV; listed as Homo sapiens) [compound 236] | + (<20% = +) | 
242 (KLQEEIPVL; listed as Homo sapiens) [compound 242] | + (<20% = +) | 
246 (ALAGIVTNV; listed as Homo sapiens) [compound 246] | + (<20% = +) | 
254 (ALGDKFLLRV; listed as Homo sapiens) [compound 254] | + (<20% = +) | 
255 (FLMKNSDLYGA; listed as Homo sapiens) [compound 255] | + (<20% = +) | 
257 (KLIDHQGLYL; listed as Homo sapiens) [compound 257] | + (<20% = +) | 
260 (ALNESLVEC; listed as Homo sapiens) [compound 260] | + (<20% = +) | 
263 (SIIEYLPTL; listed as Homo sapiens) [compound 263] | + (<20% = +) | 
264 (TLHDQVHLL; listed as Homo sapiens) [compound 264] | + (<20% = +) | 
267 (YLLDMPLWYL; listed as Homo sapiens) [compound 267] | + (<20% = +) | 
269 (GLLDCPIFL; listed as Homo sapiens) [compound 269] |  | Peptide exchange (MHC class I binding score, peptide exchange yield) [1]: ++++ (>75% = ++++)
287 (KIQEILTQV; listed as Homo sapiens) [compound 287] |  | donors [2, 3]: +++ (50%-69%- +++); wells ([2]; percentage of positive wells, CD8+ T cells of healthy HLA-A*02 donors, three stimulation cycles, multimer staining): + (<20% = +)
288 (SLYKGLLSV; listed as Homo sapiens) [compound 288] |  | donors [2, 3]: ++++ (>= 70% = ++++)
